{
  "source": "patent US12544428B2",
  "about": "“Controlled-release CNP agonists with reduced side-effects” (ASCENDIS PHARMA GROWTH DISORDERS A/S, priority 2016, dated 2026)",
  "key": {"NPR-C": {"target": "T1, NPR-C (Homo sapiens, UniProt P17342)", "T1 construct": "expressed in transfected cells; host or cells: Hek293, lentiviral transduction, CMV promoter, puromycin selection", "T1 sequence (P17342 27-541)": "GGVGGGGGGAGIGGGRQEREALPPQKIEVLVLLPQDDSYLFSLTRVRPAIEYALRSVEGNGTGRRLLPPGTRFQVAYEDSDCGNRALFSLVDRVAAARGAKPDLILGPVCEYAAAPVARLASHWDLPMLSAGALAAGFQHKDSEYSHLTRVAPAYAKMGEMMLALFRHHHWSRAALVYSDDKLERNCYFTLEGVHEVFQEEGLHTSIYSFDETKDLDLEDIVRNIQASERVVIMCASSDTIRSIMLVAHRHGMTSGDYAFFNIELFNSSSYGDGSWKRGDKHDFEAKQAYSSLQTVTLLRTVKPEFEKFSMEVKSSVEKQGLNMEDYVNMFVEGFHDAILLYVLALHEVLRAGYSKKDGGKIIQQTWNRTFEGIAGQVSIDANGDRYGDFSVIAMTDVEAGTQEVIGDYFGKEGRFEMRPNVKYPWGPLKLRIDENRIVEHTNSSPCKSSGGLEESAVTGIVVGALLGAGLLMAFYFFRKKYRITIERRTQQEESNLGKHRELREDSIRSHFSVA", "experiment": "NPR-C affinity assay", "type": "binding", "settings": "residual NPR-C affinity, NPR-C expressing Hek293 cells, competition with fluorescein-labelled CNP 27d"}, "NPR-B receptor": {"target": "T2, NPR-B receptor (Mus musculus, UniProt Q6VVW5)", "T2 construct": "These cells express endogenously the NPR-B receptor on the cell surface; endogenous in cells; host or cells: NIH-3T3 (murine embryo fibroblast)", "T2 sequence (Q6VVW5 23-1047 limits assumed)": "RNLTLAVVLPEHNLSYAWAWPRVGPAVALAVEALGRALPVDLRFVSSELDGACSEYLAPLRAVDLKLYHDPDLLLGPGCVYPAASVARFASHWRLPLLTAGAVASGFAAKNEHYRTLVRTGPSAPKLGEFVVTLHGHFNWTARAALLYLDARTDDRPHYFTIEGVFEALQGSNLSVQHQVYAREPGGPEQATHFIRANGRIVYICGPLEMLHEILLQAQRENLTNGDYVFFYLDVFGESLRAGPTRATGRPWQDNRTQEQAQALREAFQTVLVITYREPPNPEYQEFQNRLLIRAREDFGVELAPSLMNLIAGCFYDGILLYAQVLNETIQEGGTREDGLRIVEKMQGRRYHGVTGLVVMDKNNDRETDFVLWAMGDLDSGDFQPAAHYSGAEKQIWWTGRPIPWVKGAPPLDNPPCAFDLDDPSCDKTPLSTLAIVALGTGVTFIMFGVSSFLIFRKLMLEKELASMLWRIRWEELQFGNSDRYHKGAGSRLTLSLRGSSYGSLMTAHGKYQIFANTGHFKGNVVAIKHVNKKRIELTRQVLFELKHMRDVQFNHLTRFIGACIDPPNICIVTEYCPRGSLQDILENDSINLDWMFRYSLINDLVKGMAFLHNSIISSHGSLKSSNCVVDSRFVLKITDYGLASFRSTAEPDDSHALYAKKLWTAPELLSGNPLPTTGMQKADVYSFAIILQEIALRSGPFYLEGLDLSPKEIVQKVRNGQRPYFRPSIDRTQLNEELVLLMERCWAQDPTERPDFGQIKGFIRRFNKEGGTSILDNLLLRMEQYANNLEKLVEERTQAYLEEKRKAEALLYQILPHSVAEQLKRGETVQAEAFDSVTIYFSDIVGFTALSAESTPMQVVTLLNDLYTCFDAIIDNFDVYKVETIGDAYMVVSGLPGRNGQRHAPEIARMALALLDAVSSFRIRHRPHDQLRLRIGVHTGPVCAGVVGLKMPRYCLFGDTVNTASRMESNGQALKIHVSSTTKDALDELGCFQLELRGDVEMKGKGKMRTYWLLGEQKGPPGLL", "experiment": "Functional cGMP stimulation in NIH-3T3 cells with CNP variants", "type": "cell-based, murine", "settings": "residual NPR-B activity vs non-PEGylated CNP-38, cGMP", "description": "As used herein “EC50” with regard to controlled-release CNP agonist and CNP agonist refers to the concentration of controlled-release CNP agonist and CNP agonist with which a half-maximum cGMP production of NPR-B is elicited. NPR-B activity in the form of its EC50 of the controlled-release CNP agonist, of the released CNP agonist and of CNP-22 is measured by cultivating NIH-3T3 (Murine Embryo Fibroblast cell line) cells which express NPR-B on their cell surface, incubating the cells with the controlled-release CNP agonist, the corresponding released CNP agonist or CNP-22, respectively, and determining the intracellular production of the second messenger cGMP with a standard cGMP assay. In particular the assay is performed as follows: • (1) murine NIH-3T3 cells expressing endogenous NPR-B are cultivated in DMEM F-12 medium with 5% FBS and 5 mM glutamine at 37° C. and 5% CO2; • (2) for each assay 50,000 cells are resuspended in Dulbecco's PBS with IBMX and incubated with either the controlled-release CNP agonist, the corresponding released CNP agonist or CNP-22; each in different concentrations; • (3) after incubating for 30 min at 37° C. and 5% CO2, the cells are lysed and cGMP levels are determined; and • (4) generating an EC50 value from the determined cGMP levels.\nFunctional activity of CNP variants were determined in a cell-based assay with NIH-3T3 cells (Murine Embryo Fibroblast cell line). These cells express endogenously the NPR-B receptor on the cell surface. Stimulation of the NPR-B receptor with CNP leads to intracellular production of the second messenger cGMP which is detected with a commercially available cGMP assay. NIH-3T3 cells were routinely cultured in DMEM F-12 medium with 5% FBS and 5 mM glutamine at 37° C. and 5% CO2. For each assay, 50,000 cells were resuspended in stimulation buffer (Dulbecco's PBS with IBMX) and incubated with the CNP variants in different concentrations. CNP (dilutions were made in PBS with 0.2% BSA). After incubation of 30 min at 37° C. and 5% CO2, the cells were lyzed and cGMP levels were determined with a commercially available cGMP TR-FRET assay (Cisbio, cGMP kit, Cat. No. 62GM2PEB). PEGylated CNP variants were always characterized in comparison with the non-PEGylated version in the same experiment batch. If possible, evaluation of the residual activity was done via the relative EC50-parameter of the resulting dose-response curve (restricted model with common slope).\n11i was incubated under physiological conditions (1 mg CNP-38 eq/mL), as described in Example 20. After 7 d, released CNP-38 was isolated by RP-HPLC and analyzed for bioactivity as described in Example 21."}},
  "data": [
    {"substance": "Permanent Lys26 CNP-38 PEG4×10 kDa Conjugate [Compound 12g]", "values": [
      {"measurement": "IC50 of PEGylated CNP-38/IC50 CNP-38", "setting": "NPR-C", "value": 143},
      {"measurement": "EC50 compound/EC50 CNP-38", "setting": "NPR-B receptor", "value": ">>100"}
    ]},
    {"substance": "Reversible Lys26 CNP-38 PEG2×20 kDa Conjugate [Compound 10f]", "values": [
      {"measurement": "IC50 of PEGylated CNP-38/IC50 CNP-38", "setting": "NPR-C", "value": 12},
      {"measurement": "EC50 compound/EC50 CNP-38", "setting": "NPR-B receptor", "value": ">>100"}
    ]}
  ]
}
